# Assay results from US7341857B2, “Production of beta-hydroxypalmitate methyl esterase from Ideonella sp.0-0013 (FERM BP-08660)” (Incorporated Administrative Agency National Agriculture and …, priority 2003, dated 2008).
# Legend:
# [1] = tested on: esterase derived from Ideonella sp. 0-0013 strain; assay: Decomposing activities of methyl palmitate or methyl 3-hydroxypalmitate (Test Example 2, substrate selectivity); format: biochemical; conditions: for Decomposition: 0.5 mg of substrate; for Activity ratio: methyl 3-hydroxypalmitate = 100.0
# Experimental: The culture broth obtained by cultivating the strain in the same manner as that in Example 1 was centrifuged to obtain a supernatant and microbial cells. The supernatant or the microbial cells were suspended in 200 μL of 10 mM potassium phosphate buffer (pH 7.0) containing 0.5 mg of methyl 3-hydroxypalmitate, and the resultant was allowed to react at 43° C. for 12 hours.
# After completion of the reaction, 500 μL of dichloromethane was added to the reaction mixture to extract 3-hydroxypalmitic acid. The extract was subjected to gas chromatography (Stabilwax-DA, 30 m×0.53 mm×0.25 μm) to measure the decomposing activity of methyl 3-hydroxypalmitate.
# 0.5 mg of methyl palmitate or methyl 3-hydroxypalmitate was reacted and analyzed in the same manner as that in Example 1 and the decomposing activities of the compounds were measured in each case.
# [2] = tested on: esterase derived from Ideonella sp. 0-0013 strain; assay: Inhibition, activation and stabilization of the esterase; format: biochemical
# Experimental: Methyl 3-hydroxypalmitate is detected by gas chromatography with a column of Stabilwax-DA, 30 m×0.53 mm×0.25 μm. The 3-hydroxypalmitic acid generated by hydrolysis of the ester can be detected by the same gas chromatography as described above. • (2) Optimal temperature for functioning: The optimal temperature of the enzyme of the present invention is 37° C. • (3) Optimal pH and stable pH range: pH 7 or more to pH 10 or less. • (4) Temperature stability: 97% of the enzyme is stable at 43° C., 54% of the enzyme is stable at 50° C., and 38% of the enzyme is stable at 60° C. • (5) Inhibition, activation, and stabilization: Activated by sodium ion and potassium ion, and inhibited by strontium ion, iron ion (divalent), and methyl palmitate. • (6) Molecular weight: About 46,500 Da (by SDS-PAGE), about 41,000 Da (by a gel filtration method). • (7) Isoelectric point: pI 4 (by polyacrylamide gel isoelectric focusing method).
SMILES,hydrolytic activity relative to that for methyl palmitate [1],Decomposition [1] [%],Activity ratio [1],"Inhibition, activation, and stabilization (effect on the esterase) [2]"
[Fe+2] [iron ion (divalent)],,,,inhibited
[K+] [potassium ion],,,,Activated
[Na+] [sodium ion],,,,Activated
[Sr+2] [strontium ion],,,,inhibited

# Continued, values first:
hydrolytic activity relative to that for methyl palmitate [1],Decomposition [1] [%],Activity ratio [1],"Inhibition, activation, and stabilization (effect on the esterase) [2]",SMILES
about 5 times,50.3,100.0,,"CCCCCCCCCCCCCC(O)CC(=O)OC (stereo not shown) [Methyl 3-hydroxypalmitate, methyl 3-hydroxypalmitate]"
,10.3,20.5,inhibited,"CCCCCCCCCCCCCCCC(=O)OC [Methyl palmitate, methyl palmitate]"
